The text below walks through data of publication PMC8163982, “Partial agonism improves the anti-hyperglycaemic efficacy of an oxyntomodulin-derived GLP-1R/GCGR co-agonist” (Molecular Metabolism, 2021).

Where a SMILES comes first, the peptide text is derived from it. [ ]: non-standard residue; d: D form. Aib = CC(C)(N)C(=O)O

In one data set the target is GCGR (Homo sapiens, UniProt P47871). The data set is described as follows: NanoBiT mini-Gs recruitment to GCGR-SmBiT in HEK293T cells. Type of data set: cell-based. Details: expressed in transfected cells; host or cells: HEK293T. The settings on record: SRB103 pair, mean ± SEM, n = 6; for Emax: HEK-293T, normalised to full agonist response, read-out: GCGR mini-Gs (HEK293T) Emax; for EC50: 3-parameter fit, read-out: GCGR mini-Gs (HEK293T) pEC50 (converted).

For the next data set, the target named is GLP-1R (Homo sapiens, UniProt P43220). Nature of the data set: cAMP production (HTRF) in PathHunter CHO-K1 cells expressing GLP-1R. Type of data set: cell-based. Also on record: host or cells: PathHunter CHO-K1-βarr2-EA. The settings on record: 30 min, mean ± SEM, n = 6; for EC50: 37 °C, serum-free medium, no phosphodiesterase inhibitors, read-out: GLP-1R cAMP (CHO–K1) pEC50 (converted); for Emax: CHO-K1, normalised to globally fitted maximum response. The protocol:
HEK293T cells were maintained in DMEM supplemented with 10% FBS and 1% penicillin/streptomycin. PathHunter CHO–K1-βarr2-EA cells stably expressing human GLP-1R, GCGR, or GIPR and PathHunter CHO–K1-βarr1-EA cells stably expressing GCGR were obtained from DiscoverX and maintained in Ham's F12 medium with 10% FBS and 1% penicillin/streptomycin. Stable HEK293-SNAP-GLP-1R cells were maintained in DMEM supplemented with 10% FBS, 1% penicillin/streptomycin, and 1 mg/ml of G418. INS-1 832/3 cells, a gift from Professor Chris Newgard (Duke University), were maintained in RPMI with 11 mM of glucose supplemented with 10% FBS, 10 mM of HEPES, 1 mM of pyruvate, 50 μM of β-mercaptoethanol, and 1% penicillin/streptomycin. Huh7 cells stably expressing human GCGR (Huh7-GCGR) were maintained in DMEM supplemented with 10% FBS, 1 mg/ml of G418, and 1% penicillin/streptomycin.
PathHunter cells were stimulated with the indicated concentration of agonist for 30 min at 37 °C in serum-free medium without phosphodiesterase inhibitors. INS-1 832/3 cells were stimulated with the indicated concentration of agonist for 10 min at 37 °C in serum-free medium with 100 μM of 3-isobutyl-1-methylxanthine (IBMX). Primary dispersed mouse islet cells prepared by triturating intact islets in 0.05% trypsin/EDTA for 3 min at 37 °C were stimulated with the indicated concentration of agonist for 5 min at 37 °C in serum-free medium with 11 mM of glucose and 500 μM of IBMX. Primary mouse hepatocytes were stimulated in serum-free medium with 100 μM of IBMX for 10 min or 16 h in serum-free medium with 100 μM of IBMX added for the final 10 min of incubation. Huh7-GCGR cells were stimulated in serum-free medium without phosphodiesterase inhibitors for 10 min or for 16 h in serum-free medium. Where relevant, forskolin (10 μM) was added as a positive or normalisation control. At the end of each incubation, cAMP was then assayed by HTRF (Cisbio cAMP Dynamic 2) and concentration-response curves were constructed with 3-parameter curve fitting using Prism 8.0.

The target in data set [1] is T1, SNAP-GLP-1R (Homo sapiens, UniProt P43220).
T1 construct: expressed in transfected cells
The data set is described as follows: GLP-1R internalisation by DERET in HEK293-SNAP-GLP-1R cells. It is filed as cell-based. The settings on record: average response of last 3 time points of 30 min, mean ± SEM, n = 5, read-out: DERET (HEK293-SNAP-GLP-1R) pEC50 (converted). As for the experimental part: The assay was performed as previously described. HEK-SNAP-GLP-1R cells were labelled using 40 nM of SNAP-Lumi4-Tb in complete medium for 60 min at room temperature. After washing, the cells were resuspended in HBSS containing 24 μM of fluorescein and dispensed into 96-well white plates. A baseline read was serially recorded for 5 min using a FlexStation 3 instrument at 37 °C in TR-FRET mode using the following settings: λex at 340 nm, λem at 520 and 620 nm, auto cut-off, delay of 400 μs, and integration time of 1500 μs? Ligands were then added, after which the signals were repeatedly recorded for 30 min. The fluorescence signals were expressed ratiometrically after first subtracting signals from wells containing 24 μM of fluorescein but no cells. Internalisation was quantified as the AUC relative to the individual well baseline, and concentration-response curves were generated with Prism 8.0.

The target in data set [2] is T1, SNAP-GLP-1R. Nature of the data set: High content imaging assay for SNAP-GLP-1R internalisation. The settings on record: high content analysis, mean ± SEM, n = 4, read-out: HCA assay (HEK293-SNAP-GLP-1R) pEC50 (converted). It is filed as cell-based. As for the experimental part:
The assay was adapted from a previously described method. HEK293T cells were seeded in black clear-bottom plates coated with 0.1% poly-D-lysine and assayed 24 h after transfection with SNAP-tagged GLP-1R or GCGR plasmid DNA (0.1 μg per well). The cells were labelled with the cleavable SNAP-tag probe BG-S-S-549 (a gift from New England Biolabs) in complete medium for 30 min at room temperature. After washing, fresh serum-free medium ± agonist was added. At the end of incubation, the medium was removed and the wells were treated with for 5 min at 4 °C with Mesna (100 mM in alkaline TNE buffer at a pH of 8.6) to remove BG-S-S-549 bound to residual surface receptors without affecting the internalised receptor population or with alkaline TNE buffer alone. After washing, phase contrast and epifluorescence cellular imaging at 20× magnification was performed, followed by processing as previously described to quantify the amount of internalised receptor from the fluorescence intensity readings.

The target in another data set is T2, recombinant DPP-4 (Homo sapiens, UniProt P27487).
T2 construct: purchased R&D Systems
Nature of the data set: DPP-4 peptide degradation assay. It is filed as in vitro ADME. The settings on record: 10 nmol peptide in 750 μl 100 mM Tris–HCl pH 8, 10 mU recombinant DPP-4, 37 °C, 1 or 24 h, intact peptide by RP-HPLC (C18), UV 214 nm, vs no-enzyme control, n = 3. The protocol: Then, 10 mU of recombinant DPP-4 (R&D Systems) or no enzyme as a control for non-enzymatic degradation over the same time period was added to the reconstituted peptide. Reactions were incubated at 37 °C and 120 μl samples were collected from the reaction vessel at the indicated time points. Then, 5 μl of 10% trifluoroacetic acid (TFA) was added to each sample to terminate enzyme activity. The samples were analysed by reverse-phase high-performance liquid chromatography (HPLC) with a linear acetonitrile/water gradient acidified with 0.1% TFA on Phenomenex Aeris Peptide 3.6 μm XB-C18 columns (150 × 4.6 mm). The eluted peptides were detected at 214 nm. Peptide degradation was calculated by comparing the area under the peak of the original compound with and without enzyme.

T1 sequence (P43220 24-463): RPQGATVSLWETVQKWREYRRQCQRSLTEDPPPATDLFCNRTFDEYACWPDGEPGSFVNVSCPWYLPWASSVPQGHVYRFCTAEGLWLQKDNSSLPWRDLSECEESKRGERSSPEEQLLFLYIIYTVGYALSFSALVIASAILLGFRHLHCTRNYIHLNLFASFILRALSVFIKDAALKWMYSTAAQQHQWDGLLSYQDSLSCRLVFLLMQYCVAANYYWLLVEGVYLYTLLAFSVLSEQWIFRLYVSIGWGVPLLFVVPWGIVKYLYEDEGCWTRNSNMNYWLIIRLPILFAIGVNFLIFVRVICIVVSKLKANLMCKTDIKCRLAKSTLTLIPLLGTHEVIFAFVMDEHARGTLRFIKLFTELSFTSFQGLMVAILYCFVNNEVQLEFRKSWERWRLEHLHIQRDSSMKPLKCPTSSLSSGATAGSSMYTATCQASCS
Sequence of GLP-1R (P43220 24-463): as above
Sequence of GCGR (P47871 26-477): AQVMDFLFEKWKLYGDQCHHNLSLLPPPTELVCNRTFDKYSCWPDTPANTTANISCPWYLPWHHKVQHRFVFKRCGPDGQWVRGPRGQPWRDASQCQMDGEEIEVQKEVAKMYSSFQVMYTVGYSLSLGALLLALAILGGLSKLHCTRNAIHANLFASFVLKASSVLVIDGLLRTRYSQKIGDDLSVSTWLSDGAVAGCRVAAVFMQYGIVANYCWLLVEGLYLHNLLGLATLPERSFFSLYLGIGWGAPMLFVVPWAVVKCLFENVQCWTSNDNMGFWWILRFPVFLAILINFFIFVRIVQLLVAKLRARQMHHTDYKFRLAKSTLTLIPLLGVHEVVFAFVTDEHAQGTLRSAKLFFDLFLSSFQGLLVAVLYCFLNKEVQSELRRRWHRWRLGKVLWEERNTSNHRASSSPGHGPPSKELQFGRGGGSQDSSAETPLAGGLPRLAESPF
T2 sequence (P27487 whole entry, species assumed): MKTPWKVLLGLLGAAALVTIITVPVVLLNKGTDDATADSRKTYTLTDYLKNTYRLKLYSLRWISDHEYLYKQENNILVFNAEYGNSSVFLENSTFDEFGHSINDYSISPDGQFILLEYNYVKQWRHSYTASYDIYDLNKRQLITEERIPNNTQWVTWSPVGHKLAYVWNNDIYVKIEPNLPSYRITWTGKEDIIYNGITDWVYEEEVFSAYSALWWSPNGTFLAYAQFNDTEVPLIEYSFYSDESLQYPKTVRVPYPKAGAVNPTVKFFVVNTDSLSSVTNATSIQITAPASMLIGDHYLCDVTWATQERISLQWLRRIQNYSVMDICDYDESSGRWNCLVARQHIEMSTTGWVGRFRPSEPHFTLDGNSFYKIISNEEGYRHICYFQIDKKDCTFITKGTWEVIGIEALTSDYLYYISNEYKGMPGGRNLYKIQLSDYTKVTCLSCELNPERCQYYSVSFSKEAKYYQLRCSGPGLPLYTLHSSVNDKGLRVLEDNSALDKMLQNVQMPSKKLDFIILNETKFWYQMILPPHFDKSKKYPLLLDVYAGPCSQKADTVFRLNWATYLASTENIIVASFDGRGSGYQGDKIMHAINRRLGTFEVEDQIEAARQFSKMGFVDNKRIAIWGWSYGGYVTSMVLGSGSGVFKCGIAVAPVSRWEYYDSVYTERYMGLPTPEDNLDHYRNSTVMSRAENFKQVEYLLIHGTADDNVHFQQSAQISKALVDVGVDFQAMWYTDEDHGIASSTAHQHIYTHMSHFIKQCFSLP

Regarding `CC[C@H](C)[C@H](NC(=O)[C@H](Cc1ccccc1)NC(=O)[C@H](CCC(=O)O)NC(=O)[C@H](CCC(N)=O)NC(=O)[C@H](C)NC(=O)[C@H](CCCNC(=N)N)NC(=O)[C@H](CCCCN)NC(=O)[C@H](C)NC(=O)[C@H](CC(=O)O)NC(=O)[C@H](CC(C)C)NC(=O)[C@H](Cc1ccc(O)cc1)NC(=O)[C@H](CCCCN)NC(=O)[C@H](CO)NC(=O)[C@H](Cc1ccc(O)cc1)NC(=O)[C@H](CC(=O)O)NC(=O)[C@H](CO)NC(=O)[C@@H](NC(=O)[C@H](Cc1ccccc1)NC(=O)[C@@H](NC(=O)CNC(=O)[C@H](Cc1c[nH]cn1)NC(=O)C(C)(C)NC(=O)[C@@H](N)Cc1c[nH]cn1)[C@@H](C)O)[C@@H](C)O)C(=O)N[C@@H](CCC(=O)O)C(=O)N[C@@H](Cc1c[nH]c2ccccc12)C(=O)N[C@@H](CC(C)C)C(=O)N[C@@H](CC(C)C)C(=O)N[C@@H](C)C(=O)NCC(=O)N[C@@H](Cc1c[nH]cn1)C(=O)N[C@@H](Cc1c[nH]cn1)C(=O)N[C@@H](Cc1c[nH]cn1)C(=O)N[C@@H](Cc1c[nH]cn1)C(=O)N[C@@H](Cc1c[nH]cn1)C(=O)N1CCC[C@H]1C(=O)N[C@@H](CO)C(=O)N[C@@H](Cc1c[nH]c2ccccc12)C(=O)O` [SRB103H] (H-H[Aib]HGTFTSDYSKYLDAKRAQEFIEWLLAGHHHHHPSW-OH), the figures for the Emax on GCGR and on GLP-1R were 100% and 99 ± 4%, respectively. The EC50 at GCGR was 7.94 nM; on GLP-1R it was 0.316 nM; at SNAP-GLP-1R [1], 20 nM; at SNAP-GLP-1R [2] it was 7.94 nM. Besides, the “Resistance to DPP-4-mediated degradation” value at recombinant DPP-4 was “highly resistant to DPP-4-mediated degradation”.
Take `CC[C@H](C)[C@H](NC(=O)[C@H](Cc1ccccc1)NC(=O)[C@H](CCC(=O)O)NC(=O)[C@H](CCC(N)=O)NC(=O)[C@H](C)NC(=O)[C@H](CCCNC(=N)N)NC(=O)[C@H](CCCCN)NC(=O)[C@H](C)NC(=O)[C@H](CC(=O)O)NC(=O)[C@H](CC(C)C)NC(=O)[C@H](Cc1ccc(O)cc1)NC(=O)[C@H](CCCCN)NC(=O)[C@H](CO)NC(=O)[C@H](Cc1ccc(O)cc1)NC(=O)[C@H](CC(=O)O)NC(=O)[C@H](CO)NC(=O)[C@@H](NC(=O)[C@H](Cc1ccccc1)NC(=O)[C@@H](NC(=O)CNC(=O)[C@H](CCC(N)=O)NC(=O)C(C)(C)NC(=O)[C@@H](N)Cc1c[nH]cn1)[C@@H](C)O)[C@@H](C)O)C(=O)N[C@@H](CCC(=O)O)C(=O)N[C@@H](Cc1c[nH]c2ccccc12)C(=O)N[C@@H](CC(C)C)C(=O)N[C@@H](CC(C)C)C(=O)N[C@@H](C)C(=O)NCC(=O)N[C@@H](Cc1c[nH]cn1)C(=O)N[C@@H](Cc1c[nH]cn1)C(=O)N[C@@H](Cc1c[nH]cn1)C(=O)N[C@@H](Cc1c[nH]cn1)C(=O)N[C@@H](Cc1c[nH]cn1)C(=O)N1CCC[C@H]1C(=O)N[C@@H](CO)C(=O)N[C@@H](Cc1c[nH]c2ccccc12)C(=O)O` [SRB103Q] (H-H[Aib]QGTFTSDYSKYLDAKRAQEFIEWLLAGHHHHHPSW-OH): the Emax at GCGR turned out to be 83 ± 1%; at GLP-1R it was 103 ± 2%. The EC50 is 20 nM on GCGR, 0.316 nM on GLP-1R, 20 nM at SNAP-GLP-1R [1] and 2.51 nM on SNAP-GLP-1R [2]. Further, the “Resistance to DPP-4-mediated degradation” value on recombinant DPP-4 is “highly resistant to DPP-4-mediated degradation”.

What is called Emax is the maximal effect, on the per cent scale that the assay sets.
